According to ChEMBL document CHEMBL5050844 (2019):

Legend:
[1] = Induction of allogenic human T cell activation at 3 uM assessed fold increase in cell proliferation; format: functional, T cell line
[2] = Induction of anti-CD3/CD28 antibodies-stimulated human T cell activation at 1 uM assessed fold increase in IL-2 secretion measured by ELISA assay; format: functional, T cell line
[3] = Induction of anti-CD3/CD28 antibodies-stimulated human T cell activation at 4 uM assessed fold increase in CD25 expression measured by ELISA assay; format: functional, T cell line
[4] = Induction of anti-CD3/CD28 antibodies-stimulated human T cell activation at 1.11 uM assessed fold increase in GM-CSF secretion measured by ELISA assay; format: functional, T cell line
[5] = Induction of anti-CD3 antibodies-stimulated human exhausted CD4+ T cell activation assessed fold increase in CTLA4 expression measured by flow cytometry analysis; format: functional, T cell line; note: reference of the scale not given here
[6] = Induction of anti-CD3 antibodies-stimulated human exhausted T cell activation assessed fold increase in IFN-gamma secretion measured by ELISA assay; format: functional, T cell line; note: reference of the scale not given here
[7] = molecular target: T1, E3 ubiquitin-protein ligase CBL-B (Homo sapiens, UniProt Q13191); experiment: Inhibition of N-terminal Avi-tagged human CBL-B (36 to 427 residues) incubated with 60 nM Src kinase for 1.5 hrs followed by incubation with fluorescently labeled UbcH5B-Ub for 1 hr and measured by TR-FRET assay; format: single protein
[8] = Induction of anti-CD3/CD28 antibodies-stimulated human CD8+ T cell activation at 10 uM assessed fold increase in cell proliferation measured by flow cytometry analysis; format: functional, T cell line
[9] = Induction of anti-CD3/CD28 antibodies-stimulated human CD8+ T cell activation at 1.11 uM assessed fold increase in cell proliferation measured by flow cytometry analysis; format: functional, T cell line
[10] = Induction of anti-CD3 antibodies-stimulated human T cell activation at 1.11 uM assessed fold increase in GM-CSF secretion measured by ELISA assay; format: functional, T cell line; note: reference of the scale not given here
[11] = Induction of anti-CD3/CD28 antibodies-stimulated human anergic T cell activation at 1.11 uM assessed fold increase in IFN-gamma secretion measured by ELISA assay; format: functional, T cell line
[12] = molecular target: T1, E3 ubiquitin-protein ligase CBL-B; experiment: Binding affinity towards N-terminal biotinylated Avi-tagged human CBL-B (36 to 427 residues) measured by surface plasmon resonance assay
[13] = Induction of activation of human CD56+ CD3- NK cells co-cultured with human K562 cells in 1:1 ratio and assessed as increase in IFN-gamma secretion at 0.625 uM measured by ELISA assay; format: functional, Natural killer cell
[14] = Induction of anti-CD3/CD28 antibodies-stimulated human CD8+ T cell activation at 10 uM assessed fold increase in CD69 expression measured by flow cytometry analysis; format: functional, T cell line
[15] = Induction of anti-CD3 antibodies-stimulated human T cell activation at 10 uM assessed fold increase in TNF-alpha secretion measured by ELISA assay; format: functional, T cell line; note: reference of the scale not given here
[16] = Induction of anti-CD3 antibodies-stimulated human T cell activation at 1 uM assessed fold increase in IL-2 secretion measured by ELISA assay; format: functional, T cell line; note: reference of the scale not given here
[17] = Induction of activation of human CD56+ CD3- NK cells co-cultured with human K562 cells in 1:1 ratio and assessed as increase in TNF-alpha secretion at 0.625 uM measured by ELISA assay; format: functional, Natural killer cell

T1 sequence (Q13191 whole entry, the tested form may be a part): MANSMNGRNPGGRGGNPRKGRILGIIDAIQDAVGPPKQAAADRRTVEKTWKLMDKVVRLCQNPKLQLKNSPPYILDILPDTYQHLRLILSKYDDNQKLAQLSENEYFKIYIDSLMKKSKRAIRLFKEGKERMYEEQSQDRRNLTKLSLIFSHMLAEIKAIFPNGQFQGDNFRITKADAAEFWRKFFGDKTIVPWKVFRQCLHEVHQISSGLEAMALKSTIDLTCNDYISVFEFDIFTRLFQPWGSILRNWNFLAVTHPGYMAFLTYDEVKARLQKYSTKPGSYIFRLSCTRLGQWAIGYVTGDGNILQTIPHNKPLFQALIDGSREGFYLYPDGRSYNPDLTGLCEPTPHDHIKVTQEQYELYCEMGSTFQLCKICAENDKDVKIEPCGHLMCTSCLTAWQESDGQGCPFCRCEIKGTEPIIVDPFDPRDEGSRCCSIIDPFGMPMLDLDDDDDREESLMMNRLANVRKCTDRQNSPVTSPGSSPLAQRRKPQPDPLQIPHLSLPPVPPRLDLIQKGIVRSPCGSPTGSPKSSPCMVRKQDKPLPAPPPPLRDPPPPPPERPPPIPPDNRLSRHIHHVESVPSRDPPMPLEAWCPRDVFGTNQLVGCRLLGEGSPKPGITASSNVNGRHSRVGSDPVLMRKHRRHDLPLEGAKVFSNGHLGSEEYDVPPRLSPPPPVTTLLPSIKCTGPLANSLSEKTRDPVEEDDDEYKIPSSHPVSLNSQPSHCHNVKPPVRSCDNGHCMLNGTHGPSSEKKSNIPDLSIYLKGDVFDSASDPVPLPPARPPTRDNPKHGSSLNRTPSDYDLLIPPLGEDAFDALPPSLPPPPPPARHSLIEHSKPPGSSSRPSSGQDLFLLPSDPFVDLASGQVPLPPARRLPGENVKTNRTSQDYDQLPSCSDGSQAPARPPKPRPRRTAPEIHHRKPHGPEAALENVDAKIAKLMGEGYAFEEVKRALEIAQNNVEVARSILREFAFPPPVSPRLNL

| IC50 [7] | Kd [12] | Structure (SMILES) | fold change (FC) [1] | fold change (FC) [2] | fold change (FC) [3] | fold change (FC) [4] | fold change (FC) [5] | fold change (FC) [6] | fold change (FC) [8] | fold change (FC) [9] | fold change (FC) [10] | fold change (FC) [11] | fold change (FC) [13] | fold change (FC) [14] | fold change (FC) [15] | fold change (FC) [16] | fold change (FC) [17] |
| --- | --- | --- | --- | --- | --- | --- | --- | --- | --- | --- | --- | --- | --- | --- | --- | --- | --- |
| < 100 nM | < 100 nM | C[C@H](Cc1nncn1C)c1cccc(N2Cc3c(cc(CN4CC[C@](C)(O)C4)cc3C(F)(F)F)C2=O)c1 | 2.01 | 5 | 1.31 | 2.01 | 1.41 | >1.61 | >4 | 3.01 | 2.01 | >4.01 | 2.01 | 1.201 | 2.01 | 0.101 | 1.01 |
| < 100 nM | < 100 nM | Cc1n[nH]c(C)c1-c1cc2c(c(C(F)(F)F)c1)CN(c1cccc(C3(Cc4nncn4C)COC3)c1)C2=O | <=2 | 2.51 | 1.31 | 1.51 | >1.61 | 1.41 | 3.01 | 2.01 | 1.51 | <=2.5 | 1.01 | 1.201 | 1.51 | 0.101 | <=1 |
| < 100 nM |  | Cn1cnnc1C(F)(F)[C@](C)(F)c1cccc(N2Cc3c(cc(CN4CC[C@@H](C#N)C4)cc3C(F)(F)F)C2=O)c1 | <=2 | >=7.5 | 1.31 | 2.01 | >1.61 | >1.61 | >4 | 3.01 | 1.51 | 2.51 | 2.01 | 1.201 | 2.01 | 0.151 | 1.01 |
|  |  | C[C@H](Cc1nncn1C)c1cccc(NC(=O)c2cccc(CCO)n2)c1 | <=2 | 1.01 | 1.31 | <=1.5 | <=1.4 | <=1.4 | 2.01 | <=2 | <=1.5 | <=2.5 | 1.01 | <=1.2 | <=1.5 | 0.051 | <=1 |
| < 100 nM |  | Cn1cnnc1CC1(c2cccc(N3Cc4c(cc(CN5CC[C@H](C#N)C5)cc4C(F)(F)F)C3=O)c2)COC1 | <=2 | >=7.5 | 1.31 | 2.01 | >1.61 | <=1.4 | 3.01 | 2.01 | 2.01 | 2.51 | 2.01 | 1.201 | 1.51 | >=0.201 | 1.01 |
|  |  | C[C@H](Cc1nncn1C)c1cccc(NC(=O)c2n[nH]c3c2CCC3)c1 | <=2 | 1.01 | 1.01 | <=1.5 | <=1.4 | <=1.4 | 2.01 | 3.01 | <=1.5 | <=2.5 | 1.01 | 1.201 | <=1.5 | 0.101 | 1.01 |
|  |  | Cc1cc(C(=O)Nc2cccc([C@@H](C)Cc3nncn3C)c2)nc(C2CC2)n1 | <=2 | 1.01 | 1.01 | 1.51 | <=1.4 | <=1.4 | >4 | 2.01 | <=1.5 | <=2.5 | 1.01 | 1.201 | <=1.5 | 0.051 | <=1 |
| < 100 nM | < 100 nM | C[C@H](Cc1nncn1C)c1cccc(NC(=O)c2cc3cc(N4CCNCC4)ccc3cn2)c1.Cl | <=2 | 1.01 | 1.01 | 1.51 | 1.41 | >1.61 | 2.01 | 2.01 | 1.51 | <=2.5 | 1.01 | 1.201 | <=1.5 | 0.101 | <=1 |
|  |  | Cc1cc2c(c(C3CC3)n1)CN(c1cccc([C@H](C)Cc3nncn3C)c1)C2=O | <=2 | 1.01 | 1.01 | <=1.5 | <=1.4 | <=1.4 | 2.01 | <=2 | <=1.5 | <=2.5 | 1.01 | 1.201 | <=1.5 | 0.051 | <=1 |
| < 100 nM | < 100 nM | COC1CN(Cc2cc3c(c(C(F)(F)F)c2)CN(c2cccc([C@@](C)(F)C(F)(F)c4nncn4C)c2)C3=O)C1 | <=2 | 5 | 1.31 | 2.01 | >1.61 | >1.61 | >4 | 3.01 | 1.51 | 2.51 | 2.01 | 1.201 | 1.51 | 0.151 | 1.01 |
|  |  | C[C@H](Sc1nncn1C)c1cccc(NC(=O)c2cc(C(=O)N3CC[C@H](O)C3)ccn2)c1 | <=2 | <=1 | 1.01 | 2.01 | <=1.4 | <=1.4 | >4 | >4 | 2.01 | <=2.5 | <=1 | 1.201 | 2.01 | <=0.05 | <=1 |
|  |  | C[C@H](Cc1nncn1C)c1cccc(N2Cc3c(ccnc3C3CC3)C2=O)c1 | <=2 | 1.01 | 1.31 | 2.01 | <=1.4 | >1.61 | 3.01 | <=2 | 1.51 | <=2.5 | 2.01 | 1.201 | <=1.5 | 0.151 | 1.01 |
|  |  | Cn1cnnc1[C@@H]1C[C@@H]1c1cccc(N2Cc3c(ccnc3C(F)(F)F)C2=O)c1 | <=2 | 1.01 | 1.01 | <=1.5 | <=1.4 | <=1.4 | 2.01 | <=2 | <=1.5 | <=2.5 | 1.01 | 1.201 | 1.51 | 0.051 | <=1 |
|  |  | C[C@H](Cc1nncn1C)c1cccc(NC(=O)c2nc(C(F)(F)F)c[nH]2)c1 | <=2 | 2.51 | 1.01 | 1.51 | <=1.4 | >1.61 | 3.01 | 2.01 | 1.51 | <=2.5 | 2.01 | 1.201 | 1.51 | 0.051 | 1.01 |
